According to ChEMBL document CHEMBL5260850, “The exploration of aza-quinolines as hematopoietic prostaglandin D synthase (H-PGDS) inhibitors with low brain exposure” (Bioorg Med Chem, 2020):
Values after ≈ are worked out from the molar mass of the structure shown. Active and inactive are the calls of the source. The rule behind the calls is not given here.

Legend:
[1] = target: T1, Hematopoietic prostaglandin D synthase (Rattus norvegicus, UniProt O35543); assay: Inhibition of H-PGDS in rat RBL cells assessed as reduction in A23187-induced PGD2 production pretreated for 30 mins followed by A23187 addition for 30 mins by RapidFire Mass spectrometry; assay type: cell-based
T1 sequence (O35543 whole entry): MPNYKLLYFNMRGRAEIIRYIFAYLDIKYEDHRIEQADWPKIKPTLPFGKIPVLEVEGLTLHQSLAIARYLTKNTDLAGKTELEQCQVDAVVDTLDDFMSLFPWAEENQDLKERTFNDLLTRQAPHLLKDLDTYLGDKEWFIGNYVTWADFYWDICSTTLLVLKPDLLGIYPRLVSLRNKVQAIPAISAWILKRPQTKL

[2] = Solubility of the compound in FaSSIF at pH 6.5 measured after 4 hrs by HPLC-UV analysis; assay type: ADME
[3] = Clearance in mouse at 1 mg/kg, iv; assay type: ADME, organism-based; settings: in vivo
[4] = Oral bioavailability in mouse at 3 mg/kg; assay type: ADME, organism-based; settings: in vivo
[5] = Ratio of drug level in brain to blood in mouse at 1 mg/kg, iv; assay type: ADME, organism-based; settings: read-out: BBR
[6] = Volume of distribution at steady state in rat at 0.4 mg/kg, iv; assay type: ADME, organism-based; settings: in vivo, read-out: Vdss
[7] = target: Voltage-dependent L-type calcium channel subunit alpha-1C (Homo sapiens, UniProt Q13936); assay: Inhibition of Cav1.2 channel (unknown origin) upto 10000 nM; settings: 10 µM
[8] = target: Sodium channel protein type 5 subunit alpha (Homo sapiens, UniProt Q14524); assay: Inhibition of Nav1.5 channel (unknown origin) upto 10000 nM; settings: 10 µM
[9] = target: Nuclear receptor subfamily 1 group I member 2 (Homo sapiens, UniProt O75469); assay: Inhibition of PXR (unknown origin) upto 10000 nM; settings: 10 µM
[10] = test system: Mus musculus; assay: Anti-inflammatory activity against C57BL6/N mouse assessed as reduction in LPS-induced PGD2 level in plasma administered orally with compound and 1 hr later treated with LPS and measured after 30 mins by LC-MS/MS analysis; assay type: functional; settings: route po, time 1.5 hrs
[11] = Selectivity ratio of EC50 for inhibition of H-PGDS in rat RBL cells assessed as reduction in A23187-induced PGD2 production to EC50 for anti-inflammatory activity against po dosed C57BL/6J mouse assessed as reduction in compound 48/80-induced PGD2 release into peritoneal lavage fluid
[12] = test system: Mus musculus; assay: Anti-inflammatory activity against C57BL/6N mouse assessed as inhibition of muscle function loss by measuring functional recovery of injured limb muscles administered orally for 10 mins prior to unilateral eccentric contraction and QD for 16 days thereafter; settings: 384 h, route po, time 16 day
[13] = Cmax in eccentric contraction-induced muscle injury C57BL/6N mouse model administered orally for 10 mins prior to unilateral eccentric contraction and QD for 16 days thereafter; assay type: ADME; design: time 16 day, route po; settings: in vivo, po
[14] = Toxicity in C57BL/6N mouse assessed as seizures administered orally for 10 mins prior to unilateral eccentric contraction and QD for 16 days thereafter; settings: in vivo, po, 384 h, time 16 day
[15] = Toxicity in C57BL/6N mouse assessed as seizures administered orally for 10 mins prior to unilateral eccentric contraction and QD for 43 days thereafter; settings: in vivo, po, 1032 h, time 43 day
[16] = Ratio of drug level in muscle to plasma in C57BL/6N mouse administered orally for 10 mins prior to unilateral eccentric contraction and QD for 16 days thereafter; assay type: toxicity, cell-free, Muscle tissue/plasma; settings: route po, time 16 day
[17] = Toxicity in Wistar Han rat assessed as animal death at 100 mg/kg/day, po administered QD for 7 days; assay type: organism-based; settings: in vivo, 168 h, time 7 day
[18] = Toxicity in Wistar Han rat assessed as cortical hypertrophy in adrenal gland at 100 mg/kg/day, po administered QD for 7 days by microscopic analysis; assay type: organism-based; settings: in vivo, 168 h, time 7 day
[19] = Toxicity in Wistar Han rat assessed as increased lymphocytolysis in thymus at 100 mg/kg/day, po administered QD for 7 days by microscopic analysis; assay type: organism-based; settings: in vivo, 168 h, time 7 day
[20] = AUC in Wistar Han rat at 10 mg/kg/day, po QD for 7 days; assay type: ADME, organism-based; design: dose 10 mg/kg/day, time 7 day, route po; settings: in vivo
[21] = Cmax in Wistar Han rat at 10 mg/kg/day, po QD for 7 days; assay type: ADME, organism-based; design: time 7 day, dose 10 mg/kg/day, route po; settings: in vivo
[22] = Toxicity in Wistar Han rat assessed as seizure-like activity at 10 to 100 mg/kg/day, po QD for 7 days; assay type: organism-based; settings: in vivo, 168 h, dose 10-100 mg/kg/day, time 7 day
[23] = Toxicity in dog assessed as cytoplasmic alteration in zona fasciculata in adrenal gland at 75 mg/kg/day, po QD for 4 days by microscopic analysis; assay type: organism-based, Canis lupus familiaris; settings: in vivo, 96 h, time 4 day
[24] = Toxicity in dog assessed as clinical pathological changes by measuring increase in red cell mass at 75 mg/kg/day, po QD for 4 days; assay type: organism-based, Canis lupus familiaris; settings: in vivo, 96 h, time 4 day
[25] = AUC in dog at 10 mg/kg/day, po QD for 4 days; assay type: ADME, organism-based, Canis lupus familiaris; design: dose 10 mg/kg/day, time 4 day, route po; settings: in vivo
[26] = AUC in dog at 30 mg/kg/day, po QD for 4 days; assay type: ADME, organism-based, Canis lupus familiaris; design: dose 30 mg/kg/day, time 4 day, route po; settings: in vivo
[27] = Cmax in dog at 10 mg/kg/day, po QD for 4 days; assay type: ADME, organism-based, Canis lupus familiaris; design: dose 10 mg/kg/day, time 4 day, route po; settings: in vivo
[28] = test system: Mus musculus; assay: Anti-inflammatory activity against C57BL6/N mouse assessed as EC50 required for reduction in LPS-induced PGD2 level in skeletal muscle administered orally with compound and 1 hr later treated with LPS and measured after 30 mins by LC-MS/MS analysis; assay type: functional, organism-based, C57BL/6N
[29] = target: Alpha-1B adrenergic receptor (Homo sapiens) (UniProt P35368); settings: dose <= 10000.0 nM
Description: Inhibition of alpha1B adrenergic receptor (unknown origin) upto 10000 nM

[30] = target: Beta-2 adrenergic receptor (Homo sapiens) (UniProt P07550); settings: dose <= 10000.0 nM
Description: Inhibition of beta2 adrenergic receptor (unknown origin) upto 10000 nM

[31] = target: Muscarinic acetylcholine receptor M2 (Homo sapiens) (UniProt P08172); settings: dose <= 10000.0 nM
Description: Inhibition of muscarinic M2 receptor (unknown origin) upto 10000 nM

[32] = target: Mas-related G-protein coupled receptor member X2 (Homo sapiens) (UniProt Q96LB1); settings: dose <= 10000.0 nM
Description: Inhibition of MRGPRX2 receptor (unknown origin) upto 10000 nM

[33] = target: 5-hydroxytryptamine receptor 3A (Homo sapiens) (UniProt P46098); settings: dose <= 10000.0 nM
Description: Inhibition of 5-HT3 receptor (unknown origin) upto 10000 nM

[34] = target: Potassium voltage-gated channel subfamily A member 5 (Homo sapiens) (UniProt P22460); settings: dose <= 10000.0 nM
Description: Inhibition of Kv1.5 channel (unknown origin) upto 10000 nM

[35] = target: Prostaglandin G/H synthase 2 (Homo sapiens) (UniProt P35354); settings: dose <= 10000.0 nM
Description: Inhibition of COX-2 (unknown origin) upto 10000 nM

[36] = target: 3',5'-cyclic-AMP phosphodiesterase 4B (Homo sapiens) (UniProt Q07343); settings: dose <= 10000.0 nM
Description: Inhibition of PDE4B (unknown origin) upto 10000 nM

[37] = target: Aurora kinase B (Homo sapiens) (UniProt Q96GD4); settings: dose <= 10000.0 nM
Description: Inhibition of Aurora B kinase (unknown origin) upto 10000 nM

[38] = target: Tyrosine-protein kinase Lck (Homo sapiens) (UniProt P06239); settings: dose <= 10000.0 nM
Description: Inhibition of LCK (unknown origin) upto 10000 nM

[39] = target: Phosphatidylinositol 4,5-bisphosphate 3-kinase catalytic subunit gamma isoform (Homo sapiens) (UniProt P48736); settings: dose <= 10000.0 nM
Description: Inhibition of PI3K-gamma (unknown origin) upto 10000 nM

Sequence of Sodium channel protein type 5 subunit alpha (Q14524 whole entry): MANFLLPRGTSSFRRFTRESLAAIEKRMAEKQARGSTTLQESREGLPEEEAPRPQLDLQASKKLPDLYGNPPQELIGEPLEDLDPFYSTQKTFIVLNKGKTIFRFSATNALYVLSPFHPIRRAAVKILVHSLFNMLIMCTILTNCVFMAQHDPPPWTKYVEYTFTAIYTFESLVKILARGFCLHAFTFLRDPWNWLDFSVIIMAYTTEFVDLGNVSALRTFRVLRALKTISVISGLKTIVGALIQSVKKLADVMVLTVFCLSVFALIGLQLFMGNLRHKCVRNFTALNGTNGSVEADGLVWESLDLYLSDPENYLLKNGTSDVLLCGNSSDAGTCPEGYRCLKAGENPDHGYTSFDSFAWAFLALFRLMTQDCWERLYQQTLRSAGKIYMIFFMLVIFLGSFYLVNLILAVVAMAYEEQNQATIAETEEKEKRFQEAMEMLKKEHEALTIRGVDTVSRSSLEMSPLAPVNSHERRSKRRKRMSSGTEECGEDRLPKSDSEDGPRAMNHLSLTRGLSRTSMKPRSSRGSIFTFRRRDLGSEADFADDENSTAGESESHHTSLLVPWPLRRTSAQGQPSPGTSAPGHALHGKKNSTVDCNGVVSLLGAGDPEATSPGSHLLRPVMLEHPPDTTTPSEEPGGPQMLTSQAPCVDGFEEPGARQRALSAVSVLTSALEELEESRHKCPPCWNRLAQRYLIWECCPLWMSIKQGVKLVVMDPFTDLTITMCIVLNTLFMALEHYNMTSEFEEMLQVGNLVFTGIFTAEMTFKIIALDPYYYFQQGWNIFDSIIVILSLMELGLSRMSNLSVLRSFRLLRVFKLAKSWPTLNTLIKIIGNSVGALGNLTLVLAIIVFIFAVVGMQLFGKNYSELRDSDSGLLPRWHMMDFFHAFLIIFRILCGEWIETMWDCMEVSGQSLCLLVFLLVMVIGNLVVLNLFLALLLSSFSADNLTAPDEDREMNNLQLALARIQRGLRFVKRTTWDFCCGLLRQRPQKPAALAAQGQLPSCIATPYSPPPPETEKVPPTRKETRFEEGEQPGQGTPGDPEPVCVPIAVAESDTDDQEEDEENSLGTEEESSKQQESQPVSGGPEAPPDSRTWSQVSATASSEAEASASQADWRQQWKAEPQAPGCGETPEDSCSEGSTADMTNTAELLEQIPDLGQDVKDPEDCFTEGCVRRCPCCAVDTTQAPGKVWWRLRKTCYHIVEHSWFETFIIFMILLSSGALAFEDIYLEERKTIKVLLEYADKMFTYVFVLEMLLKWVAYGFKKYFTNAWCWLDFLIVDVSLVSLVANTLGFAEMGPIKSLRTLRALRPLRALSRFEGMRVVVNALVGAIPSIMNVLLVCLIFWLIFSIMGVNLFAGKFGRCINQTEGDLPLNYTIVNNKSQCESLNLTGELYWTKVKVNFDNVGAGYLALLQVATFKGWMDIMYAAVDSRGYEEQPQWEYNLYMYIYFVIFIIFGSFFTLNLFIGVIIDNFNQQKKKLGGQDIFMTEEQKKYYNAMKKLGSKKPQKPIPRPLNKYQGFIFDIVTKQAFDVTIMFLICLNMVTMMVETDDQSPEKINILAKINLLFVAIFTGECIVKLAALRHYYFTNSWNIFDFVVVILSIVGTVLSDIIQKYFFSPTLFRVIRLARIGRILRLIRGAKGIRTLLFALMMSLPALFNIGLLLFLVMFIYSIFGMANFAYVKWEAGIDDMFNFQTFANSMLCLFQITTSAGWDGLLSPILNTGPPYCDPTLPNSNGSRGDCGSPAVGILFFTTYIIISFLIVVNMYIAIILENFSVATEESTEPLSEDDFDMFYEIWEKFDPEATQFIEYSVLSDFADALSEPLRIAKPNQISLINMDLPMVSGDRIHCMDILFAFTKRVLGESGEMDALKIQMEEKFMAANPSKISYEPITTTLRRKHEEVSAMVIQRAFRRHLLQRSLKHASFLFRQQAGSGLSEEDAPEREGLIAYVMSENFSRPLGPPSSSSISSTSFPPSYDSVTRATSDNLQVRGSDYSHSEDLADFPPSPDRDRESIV
Sequence of Voltage-dependent L-type calcium channel subunit alpha-1C (Q13936 whole entry): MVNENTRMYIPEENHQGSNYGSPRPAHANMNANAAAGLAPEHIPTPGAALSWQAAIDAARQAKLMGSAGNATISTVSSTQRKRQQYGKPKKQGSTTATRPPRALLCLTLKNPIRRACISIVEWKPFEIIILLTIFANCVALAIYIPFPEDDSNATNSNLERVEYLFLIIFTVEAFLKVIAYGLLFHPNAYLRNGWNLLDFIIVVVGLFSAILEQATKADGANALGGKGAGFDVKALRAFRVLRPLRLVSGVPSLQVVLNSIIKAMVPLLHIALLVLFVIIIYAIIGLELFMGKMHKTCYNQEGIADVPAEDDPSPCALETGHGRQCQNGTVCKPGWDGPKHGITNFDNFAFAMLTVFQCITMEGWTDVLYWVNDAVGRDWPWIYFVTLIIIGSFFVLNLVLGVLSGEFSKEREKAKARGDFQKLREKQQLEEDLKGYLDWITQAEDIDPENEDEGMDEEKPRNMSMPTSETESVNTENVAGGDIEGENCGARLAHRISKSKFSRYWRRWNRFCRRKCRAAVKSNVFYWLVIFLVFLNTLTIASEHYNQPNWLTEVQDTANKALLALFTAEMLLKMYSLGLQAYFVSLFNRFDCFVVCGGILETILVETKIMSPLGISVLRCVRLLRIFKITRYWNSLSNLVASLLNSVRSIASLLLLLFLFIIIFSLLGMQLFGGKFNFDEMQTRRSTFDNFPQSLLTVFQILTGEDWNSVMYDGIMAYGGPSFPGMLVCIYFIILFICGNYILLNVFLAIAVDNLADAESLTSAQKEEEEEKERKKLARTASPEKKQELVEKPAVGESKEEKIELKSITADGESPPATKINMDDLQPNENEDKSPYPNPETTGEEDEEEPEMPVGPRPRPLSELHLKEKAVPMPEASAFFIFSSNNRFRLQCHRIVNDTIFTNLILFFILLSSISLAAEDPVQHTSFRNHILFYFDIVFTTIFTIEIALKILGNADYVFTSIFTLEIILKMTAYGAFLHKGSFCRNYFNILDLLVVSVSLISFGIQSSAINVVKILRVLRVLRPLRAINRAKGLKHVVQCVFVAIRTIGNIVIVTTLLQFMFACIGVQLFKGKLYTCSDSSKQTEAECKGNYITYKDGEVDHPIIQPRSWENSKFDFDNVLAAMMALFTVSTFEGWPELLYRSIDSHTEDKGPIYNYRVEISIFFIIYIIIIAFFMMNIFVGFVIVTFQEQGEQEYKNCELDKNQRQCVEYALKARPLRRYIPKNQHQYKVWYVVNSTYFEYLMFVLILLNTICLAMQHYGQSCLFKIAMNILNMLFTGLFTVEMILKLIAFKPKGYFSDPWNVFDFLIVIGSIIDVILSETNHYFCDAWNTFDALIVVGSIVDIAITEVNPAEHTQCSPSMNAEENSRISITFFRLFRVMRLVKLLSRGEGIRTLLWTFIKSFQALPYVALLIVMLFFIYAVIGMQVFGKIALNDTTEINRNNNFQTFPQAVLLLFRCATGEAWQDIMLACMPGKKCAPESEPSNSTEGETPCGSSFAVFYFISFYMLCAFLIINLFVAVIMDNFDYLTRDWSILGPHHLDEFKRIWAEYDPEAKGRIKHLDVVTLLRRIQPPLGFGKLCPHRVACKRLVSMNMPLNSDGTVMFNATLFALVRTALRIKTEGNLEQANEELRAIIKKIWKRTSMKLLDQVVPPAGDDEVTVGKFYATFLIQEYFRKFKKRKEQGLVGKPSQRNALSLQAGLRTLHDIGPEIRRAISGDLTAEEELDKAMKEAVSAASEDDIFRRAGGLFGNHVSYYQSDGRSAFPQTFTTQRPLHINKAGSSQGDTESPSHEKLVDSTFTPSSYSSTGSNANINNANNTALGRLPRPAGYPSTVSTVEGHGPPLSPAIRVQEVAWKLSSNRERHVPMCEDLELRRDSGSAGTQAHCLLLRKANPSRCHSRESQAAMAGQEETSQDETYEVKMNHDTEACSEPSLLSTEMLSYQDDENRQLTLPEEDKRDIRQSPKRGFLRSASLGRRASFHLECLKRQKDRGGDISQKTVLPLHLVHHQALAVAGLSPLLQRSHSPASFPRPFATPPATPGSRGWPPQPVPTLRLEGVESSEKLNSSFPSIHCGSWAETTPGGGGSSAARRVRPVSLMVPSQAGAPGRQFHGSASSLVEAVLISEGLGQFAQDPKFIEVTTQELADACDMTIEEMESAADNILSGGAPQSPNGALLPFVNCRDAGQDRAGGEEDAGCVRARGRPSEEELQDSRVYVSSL
Sequence of 5-hydroxytryptamine receptor 3A (Homo sapiens) (P46098 whole entry): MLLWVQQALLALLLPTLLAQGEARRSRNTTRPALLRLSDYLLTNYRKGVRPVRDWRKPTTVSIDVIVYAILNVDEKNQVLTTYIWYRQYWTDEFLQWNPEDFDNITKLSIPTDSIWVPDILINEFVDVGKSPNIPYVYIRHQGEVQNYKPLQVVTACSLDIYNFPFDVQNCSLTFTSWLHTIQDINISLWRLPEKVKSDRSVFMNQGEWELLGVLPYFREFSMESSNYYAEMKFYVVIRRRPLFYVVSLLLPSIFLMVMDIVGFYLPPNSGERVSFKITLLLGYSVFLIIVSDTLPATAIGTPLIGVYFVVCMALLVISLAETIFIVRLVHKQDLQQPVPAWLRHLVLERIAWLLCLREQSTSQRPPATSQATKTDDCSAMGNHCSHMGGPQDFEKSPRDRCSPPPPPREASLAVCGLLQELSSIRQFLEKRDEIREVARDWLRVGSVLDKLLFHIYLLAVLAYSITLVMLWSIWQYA
Sequence of Aurora kinase B (Homo sapiens) (Q96GD4 whole entry): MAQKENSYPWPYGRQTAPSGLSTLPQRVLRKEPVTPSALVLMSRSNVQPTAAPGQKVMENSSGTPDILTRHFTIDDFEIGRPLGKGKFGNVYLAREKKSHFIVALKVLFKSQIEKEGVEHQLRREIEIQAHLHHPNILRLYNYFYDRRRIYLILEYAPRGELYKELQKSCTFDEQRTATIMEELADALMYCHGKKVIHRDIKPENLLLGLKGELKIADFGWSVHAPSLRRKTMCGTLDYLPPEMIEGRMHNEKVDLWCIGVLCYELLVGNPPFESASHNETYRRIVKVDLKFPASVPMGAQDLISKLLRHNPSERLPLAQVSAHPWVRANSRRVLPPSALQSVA

Compound: CC(C)(O)[C@H]1CC[C@H](NC(=O)c2cnc3nc(C4CC4)ccc3c2)CC1
- EC50 [1]: 42 nM
- solubility at 4 h [2]: 140 µg/mL (≈ 396 µM)
- clearance [3]: 9 mL/min/kg
- bioavailability [4]: 71%
- Kp [5]: 0.06
- Vd [6]: 1.6 L/kg
- inhibition (INH) [7]: Not Active
- inhibition (INH) [8]: Not Active
- inhibition (INH) [9]: Not Active
- ED50 [10]: 0.0031 mg/kg
- Ratio EC50 [11]: 10
- ED50 [12]: 3 mg/kg
- Cmax [13]: 1700 ng/mL
- Activity [14]: Non-Toxic
- Activity [15]: Non-Toxic
- Kp at 384 h [16]: 0.56
- Activity [17]: Toxic
- Activity [18]: Toxic
- Activity [19]: Toxic
- AUC at 168 h [20]: 120 µg·h/mL
- Cmax [21]: 8700 ng/mL
- Activity [22]: Non-Toxic
- Activity [23]: Toxic
- Activity [24]: Toxic
- AUC at 96 h [25]: 120 µg·h/mL
- AUC at 96 h [26]: 430 µg·h/mL
- Cmax [27]: 13000 ng/mL
- EC50 [28]: 1.4 ng/g
- inhibition [29]: inactive
- inhibition [30]: inactive
- inhibition [31]: inactive
- inhibition [32]: inactive
- inhibition [33]: inactive
- inhibition [34]: inactive
- inhibition [35]: inactive
- inhibition [36]: inactive
- inhibition [37]: inactive
- inhibition [38]: inactive
- inhibition [39]: inactive
